Laboratory results from ChEMBL document CHEMBL5252551, “A hit deconstruction approach for the discovery of fetal hemoglobin inducers” (Bioorg Med Chem Lett, 2018).
Values after ≈ are worked out from the molar mass of the structure shown.

test: Induction of HbF production in human erythroid progenitor cells measured after 3 days by ELISA assay; format: functional, cell-based; conditions: Erythroid progenitor cell, 72 h, read-out: pEC50 (converted)

Question: With `O=C(CNC(=O)c1ccc2c(c1)B(O)OC2)NCc1ccccc1` as the molecule, how does the EC50 read?
Answer: > 31600 nM

Question: With `O=C(Nc1cccn(Cc2ccccc2)c1=O)c1cc(F)c2c(c1)B(O)OC2` as the molecule, how does the EC50 read?
Answer: 2140 nM

Question: For `OB1OCc2ccc(Oc3nnn[nH]3)cc21`, which EC50 is on record?
Answer: 129 nM

Question: With `CCC(C(=O)O)c1ccc2c(c1)B(O)OC2` (racemic) as the molecule, how does the EC50 read?
Answer: 50.1 nM

Question: With `CC(C)C(C(=O)O)c1ccc2c(c1)B(O)OC2` (racemic) as the molecule, how does the EC50 read?
Answer: 646 nM

Question: For `O=C(Nc1cccn(Cc2ccccc2)c1=O)c1ccc2c(c1)B(O)OC2`, which EC50 is on record?
Answer: 1020 nM

Question: With `O=C(O)Cc1ccc2c(c1)B(O)OC2` as the molecule, how does the EC50 read?
Answer: 1070 nM

Question: For `O=C(Nc1cccn(Cc2ccccc2)c1=O)c1cc2c(cc1F)COB2O`, which EC50 is on record?
Answer: > 31600 nM

Question: For `CC(C(=O)O)c1ccc2c(c1)B(O)OC2` (racemic), which EC50 is on record?
Answer: 47.9 nM

Question: For `OB1OCc2ccc(Oc3nnn[nH]3)c(F)c21`, which EC50 is on record?
Answer: 724 nM

Question: With `NC(=O)CNC(=O)c1ccc2c(c1)B(O)OC2` as the molecule, how does the EC50 read?
Answer: > 31600 nM

Question: With `O=C(Cc1ccc2c(c1)B(O)OC2)NS(=O)(=O)C1CCCC1` as the molecule, how does the EC50 read?
Answer: 15.1 nM

Question: Which EC50 does the source give for `O=C(O)c1ccn(-c2ccc3c(c2)B(O)OC3)c1` here?
Answer: 316 nM

Question: For `O=C(CCc1ccc2c(c1)B(O)OC2)NS(=O)(=O)c1ccccc1`, which EC50 is on record?
Answer: 832 nM

Question: Which EC50 does the source give for `CC(C)(C(=O)O)c1ccc2c(c1)B(O)OC2` here?
Answer: 115 nM

Question: For `O=C(O)c1ccc2c(c1)B(O)OC2`, which EC50 is on record?
Answer: 9330 nM

Question: For `O=C(O)CCc1ccc2c(c1)B(O)OC2`, which EC50 is on record?
Answer: 1120 nM

Question: For `CC(C(=O)NS(=O)(=O)C1CC1)c1ccc2c(c1)B(O)OC2` (racemic), which EC50 is on record?
Answer: 26.9 nM

test: Solubility of the compound in FaSSIF; format: ADME; conditions: not given

Question: With `O=C(Nc1cccn(Cc2ccccc2)c1=O)c1cc(F)c2c(c1)B(O)OC2` as the molecule, how does the solubility read?
Answer: 8 µg/mL (≈ 0.0212 mM)

Question: Which solubility does the source give for `OB1OCc2ccc(Oc3nnn[nH]3)cc21` here?
Answer: > 1000 µg/mL

Question: For `CCC(C(=O)O)c1ccc2c(c1)B(O)OC2` (racemic), which solubility is on record?
Answer: 850 µg/mL (≈ 3.86 mM)

Question: Which solubility does the source give for `CC(C)C(C(=O)O)c1ccc2c(c1)B(O)OC2` (racemic) here?
Answer: > 1000 µg/mL

Question: For `O=C(Nc1cccn(Cc2ccccc2)c1=O)c1ccc2c(c1)B(O)OC2`, which solubility is on record?
Answer: 3 µg/mL (≈ 0.00833 mM)

Question: Which solubility does the source give for `O=C(O)Cc1ccc2c(c1)B(O)OC2` here?
Answer: > 1000 µg/mL

Question: For `CC(C(=O)O)c1ccc2c(c1)B(O)OC2` (racemic), which solubility is on record?
Answer: > 1000 µg/mL

Question: Which solubility does the source give for `OB1OCc2ccc(Oc3nnn[nH]3)c(F)c21` here?
Answer: > 1000 µg/mL

Question: Which solubility does the source give for `O=C(Cc1ccc2c(c1)B(O)OC2)NS(=O)(=O)C1CCCC1` here?
Answer: 880 µg/mL (≈ 2.72 mM)

Question: With `O=C(O)c1ccn(-c2ccc3c(c2)B(O)OC3)c1` as the molecule, how does the solubility read?
Answer: 510 µg/mL (≈ 2.1 mM)

Question: With `O=C(CCc1ccc2c(c1)B(O)OC2)NS(=O)(=O)c1ccccc1` as the molecule, how does the solubility read?
Answer: > 1000 µg/mL

Question: For `CC(C)(C(=O)O)c1ccc2c(c1)B(O)OC2`, which solubility is on record?
Answer: > 1000 µg/mL

Question: Which solubility does the source give for `O=C(O)c1ccc2c(c1)B(O)OC2` here?
Answer: 950 µg/mL (≈ 5.34 mM)

Question: Which solubility does the source give for `O=C(O)CCc1ccc2c(c1)B(O)OC2` here?
Answer: > 1000 µg/mL

Question: Which solubility does the source give for `CC(C(=O)NS(=O)(=O)C1CC1)c1ccc2c(c1)B(O)OC2` (racemic) here?
Answer: > 1000 µg/mL

test: Genotoxicity in Salmonella typhimurium in presence of S9 fraction by Ames test; format: toxicity, subcellular; conditions: salmonella enterica subsp. enterica serovar typhimurium

Question: For `O=C(Nc1cccn(Cc2ccccc2)c1=O)c1ccc2c(c1)B(O)OC2`, which Activity is on record?
Answer: Non-Toxic

test: Genotoxicity in Salmonella typhimurium in absence of S9 fraction by Ames test; format: toxicity; conditions: salmonella enterica subsp. enterica serovar typhimurium

Question: For `O=C(Nc1cccn(Cc2ccccc2)c1=O)c1ccc2c(c1)B(O)OC2`, which Activity is on record?
Answer: Non-Toxic

test: Solubility of the compound in simulated intestinal fluid measured after 4 hrs; format: ADME; conditions: not given

Question: With `O=C(Nc1cccn(Cc2ccccc2)c1=O)c1ccc2c(c1)B(O)OC2` as the molecule, how does the solubility at 4 h read?
Answer: 3 µg/mL (≈ 0.00833 mM)
